Values quoted from earlier work in patent US11053524B2, “Microorganisms having putrescine productivity and process for producing putrescine using the same” (CJ CHEILJEDANG CORPORATION, priority 2013, dated 2021).

Assays:
potE = potE (Escherichia coli, UniProt P0AAF1); settings: read-out: Km of putrescine uptake
PotFGHI = PotFGHI (Escherichia coli, UniProt P31133); settings: read-out: Km of putrescine uptake
puuP = puuP (Escherichia coli, UniProt P76037); settings: read-out: Km of putrescine uptake
Sequence of puuP (P76037 whole entry): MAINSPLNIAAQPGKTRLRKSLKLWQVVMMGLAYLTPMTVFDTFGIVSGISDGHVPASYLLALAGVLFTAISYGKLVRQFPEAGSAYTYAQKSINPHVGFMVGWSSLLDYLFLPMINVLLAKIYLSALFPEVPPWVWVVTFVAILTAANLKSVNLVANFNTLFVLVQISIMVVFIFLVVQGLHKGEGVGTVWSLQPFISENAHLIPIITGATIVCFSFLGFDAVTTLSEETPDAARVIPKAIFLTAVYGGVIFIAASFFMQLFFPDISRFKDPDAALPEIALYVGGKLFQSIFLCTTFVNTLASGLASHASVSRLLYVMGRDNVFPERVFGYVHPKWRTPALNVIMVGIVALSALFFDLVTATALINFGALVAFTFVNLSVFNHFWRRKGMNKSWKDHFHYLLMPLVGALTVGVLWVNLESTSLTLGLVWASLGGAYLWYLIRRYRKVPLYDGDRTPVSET

potABCD = potABCD (Escherichia coli, UniProt P0AFK9); settings: read-out: Km of putrescine uptake
Sequence of potABCD (P0AFK9 24-348): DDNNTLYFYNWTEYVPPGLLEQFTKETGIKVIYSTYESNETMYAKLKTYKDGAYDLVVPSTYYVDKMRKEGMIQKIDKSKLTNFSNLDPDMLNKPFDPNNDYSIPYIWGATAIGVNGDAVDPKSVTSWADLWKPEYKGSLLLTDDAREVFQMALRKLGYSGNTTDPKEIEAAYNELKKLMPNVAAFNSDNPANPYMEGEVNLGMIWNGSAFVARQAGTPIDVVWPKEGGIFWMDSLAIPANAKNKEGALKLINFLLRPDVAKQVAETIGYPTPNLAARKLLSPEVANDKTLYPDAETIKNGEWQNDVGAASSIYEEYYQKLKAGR

Sequence of PotFGHI (P31133 27-370): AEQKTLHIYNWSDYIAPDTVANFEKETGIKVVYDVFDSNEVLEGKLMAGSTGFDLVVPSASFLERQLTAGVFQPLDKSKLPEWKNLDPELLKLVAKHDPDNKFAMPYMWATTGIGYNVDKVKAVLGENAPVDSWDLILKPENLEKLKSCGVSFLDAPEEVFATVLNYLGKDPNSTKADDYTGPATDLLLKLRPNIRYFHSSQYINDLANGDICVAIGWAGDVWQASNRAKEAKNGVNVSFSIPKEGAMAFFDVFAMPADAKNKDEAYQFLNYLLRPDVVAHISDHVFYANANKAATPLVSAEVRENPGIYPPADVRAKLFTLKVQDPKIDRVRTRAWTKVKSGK
Sequence of potE (P0AAF1 whole entry): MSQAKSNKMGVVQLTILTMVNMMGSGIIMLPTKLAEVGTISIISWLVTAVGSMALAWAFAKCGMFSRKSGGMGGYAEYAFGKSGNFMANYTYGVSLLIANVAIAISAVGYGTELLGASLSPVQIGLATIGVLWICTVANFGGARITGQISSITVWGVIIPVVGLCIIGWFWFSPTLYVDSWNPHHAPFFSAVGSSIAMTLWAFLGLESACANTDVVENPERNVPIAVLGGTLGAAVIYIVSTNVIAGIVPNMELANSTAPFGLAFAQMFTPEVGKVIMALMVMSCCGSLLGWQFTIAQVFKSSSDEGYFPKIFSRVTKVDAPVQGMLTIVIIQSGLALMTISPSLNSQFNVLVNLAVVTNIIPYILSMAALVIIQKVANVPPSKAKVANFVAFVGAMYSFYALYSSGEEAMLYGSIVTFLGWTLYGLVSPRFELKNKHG

Structure (SMILES): NCCCCN [putrescine, 1,4-butanediamine]
- Km (potE): 1.8 mM
- Km (PotFGHI): 500 µM
- putrescine concentration to which the cell is sensitive (yeast cell): 90 mM
- putrescine concentration to which the cell is resistant (yeast cell; yeast cell over-expressing TPO5 gene): 120 mM
- Km (puuP): 3.7 mM
- Km (potABCD): 1.5 mM
